Source: patent US20100261770A1, “PHARMACEUTICAL COMPOSITION FOR IMPROVING LOWER URINARY TRACT SYMPTOMS” (ASTELLAS PHARMA INC., priority 2007, published 2010)
Where a name gives a salt, the structure may show the parent alone.

Test system: rats with bladder outlet obstruction
Test: Effect on premicturition contraction in rats with bladder outlet obstruction
Format: in vivo
Details: iv; for inhibition of the premicturition contraction frequency (single use, ground for dose setting): 0.3 mg(/mL)/kg for the acetanilide compound, 0.001 mg(/mL)/kg for the sulfonamide hydrochloride; for ratio of the premicturition contraction frequency relative to the pre-administration value: drug A 0.3 mg/mL/kg, drug B 0.001 mg/mL/kg, AB combination at both doses, first micturition reflex after administration, 5 animals per group; for significant inhibition of the premicturition contraction (frequency): single use at 0.3 mg/kg or 0.001 mg/kg, or both combined, combination compared to any other groups
Protocol: The rats were fixed to a dorsal position under pentobarbital anesthesia (50 mg/kg ip), and a catheter (PE-20) was inserted into the bladder from the external urethral orifice. A midline incision was made in the lower abdominal wall, and the proximal urethra, together with the catheter, was tied at two sites with a silk suture (5-0), then, the catheter was removed and the surgical wound was sutured, and then ampicillin (150 mg/kg sc) as an antibiotic was administered to the animals which were then housed in a breeding cage. On the 11th to 12th day after the surgery, a midline incision was made in the lower abdominal wall under pentobarbital anesthesia (50 mg/kg ip), and the silk sutures tying the urethra were removed. The bladder was exposed, followed by drainage of urine, and a catheter (PE-50) was inserted into the bladder from the apical part the bladder and fixed. The other end of this catheter was lead to the outside from the posterior cervical region and then the surgical wound was sutured. In addition, a catheter (PE-50) for the drug administration was inserted into the jugular vein, and then the other end thereof was lead to the outside from the posterior cervical region. Ampicillin (150 mg/kg sc) was administered to the animals which were then returned to a breeding cage. Two to three days later, the rats were retained in a Bollman cage. The catheter inserted into the bladder was connected to a three-way stopcock valve, and one end was connected to a syringe pump (STC-525) and micturition reflex was induced by continuous infusion of physiological saline [3.6 to 12 mL/h (adjusted to achieve a voiding interval of 20 to 40 minutes)]. In addition, the other end was connected to a pressure transducer (TP-400T), and intravesical pressure was measured with a pressure amplifier (AP-601G). The premicturition contraction frequency [evaluated for 10 minutes prior to micturition reflex (maximum intravesical pressure); a contraction showing a drop of 1 cmH2O or more after a rise of 2 cmH2O or more was evaluated as one time] after the stabilization of micturition reflex by continuous infusion of physiological saline for 2 hours or more was taken as a pre-administration value. Vehicle or each drug was intravenously administered after intravesical pressure was lowered to a baseline, and the premicturition contraction frequency in the first micturition reflex was taken as a post-administration value, and evaluated by a ratio (%) relative to the pre-administration value. Drugs for the four groups examined are as follows. Evaluation was carried out using 5 animals for each group.

| Compound | inhibition of the premicturition contraction frequency (single use, ground for dose setting) | ratio of the premicturition contraction frequency relative to the pre-administration value | significant inhibition of the premicturition contraction (frequency) |
| --- | --- | --- | --- |
| CCOc1ccccc1OCCN[C@H](C)Cc1ccc(OC)c(S(N)(=O)=O)c1 [drug B, (R)-5-(2-{[2-(2-ethoxyphenoxy)ethyl]amino}propyl)-2-methoxybenzene-1-sulfonamide hydrochloride] | about 15% | 84.8% | not recognized |
| Nc1nc(CC(=O)Nc2ccc(CCNC[C@H](O)c3ccccc3)cc2)cs1 [drug A, (R)-2-(2-aminothiazol-4-yl)-4′-{2-[(2-hydroxy-2-phenylethyl)amino]ethyl}acetanilide] | about 15% | 85.0% | not recognized |
